In patent US5112841A, “Imidazole derivatives and antiepileptics comprising said imidazole derivatives as effective ingredients” (Mitsui Toatsu Chemicals, Incorporated, priority 1990, dated 1992):
Where a name gives a salt, the structure may show the parent alone.

Assays:
[1] = in vivo; parameters: species or system ddy Male mice; conditions: mouse, po
Description: ddy Male mice (body weight: 25-30 g) were used in groups each of which consisted of 5-10 mice. A test compound was orally administered One hour later, each mouse was placed on a rod which rotated a full turn per second. Mice which fell down within 120 seconds were counted. Rotorod action (%) was calculated in accordance with the following calculation formula, and ED50 (mg/Kg) was determined therefrom. [formula]

[2] = in vivo; parameters: species or system ddy Male mice; conditions: mouse, po; remark: listed apart in the source
Description: ddy Male mice (body weight: 25-30 g) were used in groups each of which consisted of 5-10 mice. A test compound was orally administered. One hour later, each mouse was caused to hold with the fore paws thereof a stainless steel wire whose diameter was 1.5 mm. […] Traction activity (%) was calculated in accordance with the following calculation formula, and ED50 (mg/Kg) was determined therefrom. [formula]

[3] = Acute Toxicity (death within 5 days); conditions: mouse, in vivo, oral, death in 5 days (LD50 in the method text), read-out: ED50
Description: ddy Male mice (body weight: 25-30 g) were used in groups each of which consisted of 5-6 mice. A test compound was orally administered. Mice which died in 5 days were counted. Death rate (%) wa calculated in accordance with the following calculation formula, and LD50 (mg/Kg) was determined therefrom. [formula]

[4] = system: mice; assay: Maximal Electroshock Seizure Test (tonic-extensor convulsions of hind legs); assay type: in vivo, ddy Male mice; conditions: Mus musculus; antiepileptic action; oral, electric shock 1 hour after dosing (200 Hz, 50 mA, 0.2 second)
Description: ddy Male mice (body weight: 25-30 g) were used in groups each of which consisted of 5-10 mice. A test compound was orally administered. One hour later, an electric shock (200 Hz, 50 mA, 0.2 second) was applied through corneal electrodes. […] Antiepileptic action (%) was calculated in accordance with the following calculation formula, and ED50 (mg/Kg) was determined therefrom. [formula]

| SMILES | TD50 at 1 h [1] [mg/kg] | TD50 at 1 h [2] [mg/kg] | LD50 at 120 h [3] [mg/kg] | ED50 [4] [mg/kg] |
| --- | --- | --- | --- | --- |
| Cl.c1ccc(-c2cc(-n3cc(Cn4ccnc4)c4ccccc43)on2)cc1 [Example 1, 1-(3-phenyl-5-isoxazolyl)-3-(1-imidazolyl)methylindole hydrochloride] | 500 | > 750 | > 1000 | 9 |
| Cl.Fc1ccc(-c2cc(-n3cc(Cn4ccnc4)c4ccccc43)on2)cc1 [Example 3, 1-{3-(4-Fluorophenyl)-5-isoxazolyl)-3-(1-imidazolyl)methylindole hydrochloride] | – | – | – | 20 to 40 |
| Cl.Clc1ccc(-c2cc(-n3cc(Cn4ccnc4)c4ccccc43)on2)cc1 [Example 4, 1-{3-(4-Chlorophenyl)-5-isoxazolyl}-3-(1-imidazolyl)methylindole hydrochloride] | – | – | – | 20 to 40 |
| Cc1ccc(-c2cc(-n3cc(Cn4ccnc4)c4ccccc43)on2)cc1 [Example 5, 1-(3-(p-Toluyl)-5-isoxazolyl}-3-(l-imidazolyl)-methylindole hydrochloride] | – | – | – | 16 |
| COc1ccc(-c2cc(-n3cc(Cn4ccnc4)c4ccccc43)on2)cc1.Cl [Example 6, 1-{3-(4-Methoxyphenyl)-5-isoxazolyl}-3-(1-imidazolyl)methylindol hydrochloride] | > 750 | > 750 | > 1000 | 7 |
| Cl.N#Cc1ccc(-c2cc(-n3cc(Cn4ccnc4)c4ccccc43)on2)cc1 [Example 7, 1-(3-(4-Cyanophenyl)-5-isoxazolyl)-3-(1-imidazolyl)methylindole hydrochloride] | – | – | – | 20 to 40 |
| Cl.FC(F)(F)c1ccc(-c2cc(-n3cc(Cn4ccnc4)c4ccccc43)on2)cc1 [Example 8, 1-{3-(4-Trifluoromethylphenyl)-5-isoxazolyl}-3-(1-imidazolyl)methylindole hydrochloride] | – | – | – | 20 to 40 |
| Cl.Clc1ccccc1-c1cc(-n2cc(Cn3ccnc3)c3ccccc32)on1 [Example 9, 1-{3-(2-Chlorophenyl)-5-isoxazolyl}-3-(1-imidazolyl)methylindole hydrochloride] | – | – | – | 20 to 40 |
| Cl.Clc1cccc(-c2cc(-n3cc(Cn4ccnc4)c4ccccc43)on2)c1 [Example 10, 1-{3-(3-Chlorophenyl)-5-isoxazolyl)-3-(1-imidazolyl)methylindole hydrochloride] | – | – | – | 20 to 40 |
| COc1cccc(-c2cc(-n3cc(Cn4ccnc4)c4ccccc43)on2)c1.Cl [Example 11, 1-(3-(3-Methoxyphenyl)-5-isoxazolyl}-3-(1-imidazolyl)methylindole hydrochloride] | > 750 | > 750 | > 1000 | 14 |
| O=C1NC(=O)C(c2ccccc2)(c2ccccc2)N1 [Phenytoin.Na, reference compound] | 186 | 350 | 300 to 500 | 7 |
